Results taken from patent US11358977B2, “Deuterated pyridone amides and prodrugs thereof as modulators of sodium channels” (VERTEX PHARMACEUTICALS INCORPORATED, priority 2017, dated 2022).

Legend:
[1] = In vitro microsomal metabolic stability assay, dog; type: in vitro ADME; settings: dog liver microsomes 0.25 mg/mL, 1.0 μM compound, NADPH
Experimental: (§1) Materials. Rat, Dog, Monkey and Human liver microsomes (20 mg/mL) were obtained from Xenotech, LLC (Lenexa, Kans.). P-nicotinamide adenine dinucleotide phosphate, reduced form (NADPH), magnesium chloride (MgCl2), and dimethyl sulfoxide (DMSO) were purchased from Sigma-Aldrich.
(§2) Methods. […] The 10 mM stock solutions were diluted to 100 μM in DMSO. In each cluster polypropylene tube, 190.7 μL of 100 mM phosphate buffer, pH 7.4 was added, then 2.5 μL of liver mocrosomes (20 mg/mL, rat, dog, monkey or human) was added, then a 2 μL aliquot of the 100 μM test compound was added, and the mixture was pre-warmed for 10 minutes. Reactions were initiated by addition of 4.8 μL of pre-warmed NADPH solution (100 mM in 100 mM phosphate buffer). The final reaction volume was 200 μL and contained 0.25 mg/mL rat, dog, monkey or human liver microsomes, 1.0 μM test compound, and 2.4 mM NADPH in 0.1 M potassium phosphate buffer, pH 7.4. The reaction mixtures were incubated at 37° C., and the reactions were quenched at 0, 15, 30 and 60 minutes by adding 200 μL of ice-cold quench solution (ACN:MeOH:0.1% formic acid in water 2:2:1) containing internal standard, n=3 per time point. The tubes were centrifuged and supernatants were analyzed for amounts of the test compound remaining by LC-MS/MS. The HPLC system included a Phenomenex Luna C8 column, 3 micron, 2 mm diameter×30 mm long eluted with a gradient mobile phase consisting of 0.1% formic acid in water or in acetonitrile. The analytes were detected by MS/MS with Electrospray Ionization (ESI) in the mode of multiple reaction monitoring (MRM). The injection volume was 10 μL.

[2] = In vivo pharmacokinetic study, rat IV; parameters: species or system Male Sprague Dawley rats
Experimental: General Procedures. Concentrations of the test compounds in plasma were determined using a high performance liquid chromatography/tandem mass spectrometry (HPLC/MS/MS) method. The test compounds along with the internal standard (IS) were extracted from plasma (20 μL) by direct protein precipitation with acetonitrile (1:25 ratio of plasma/acetonitrile). After centrifugation, the supernatant extract (10 μL) was injected onto the LC/MS/MS system. The HPLC system included a Phenomenex Luna C8 column, 3 micron, 2 mm diameter×30 mm long eluted with a gradient mobile phase consisting of 0.1% formic acid in water or in acetonitrile. The analytes were detected by MS/MS with Electrospray Ionization (ESI) in the mode of multiple reaction monitoring (MRM). The lower limit of quantitation (LLOQ) was 1.00 ng/mL. The linear range of the assay was from 1 to 3000 ng/mL. The assay accuracy was within 20% of the nominal values.
Plasma concentration-time profiles of the test compounds were analyzed by noncompartmental pharmacokinetic methods using PK module in Watson, Version 7.4.2 (Thermo Scientific). Pharmacokinetic parameters including AUCa11, AUC0-∞, C0, Cl, Vss and t1/2 were determined.
Descriptive statistical data of plasma concentrations and pharmacokinetic parameter estimates were calculated, including the mean, standard deviation (SD), and coefficient of variation (% CV) using Microsoft Excel 2010.
Rat IV Study. Compounds 7 and 10 were administered simultaneously in a single intravenous bolus to Male Sprague Dawley rats (n=3) via jugular cannula. The nominal dose of each compound was 0.5 mg/kg. The cassette dosing solution was formulated in D5W with additives Animals had free access to food and water before and after dosing. Blood samples (approximately 0.25 mL each) were collected via a carotid artery catheter prior to dosing and at 0 (predose), 5 min, 10 min, 0.25, 0.5, 1, 2, 4, 8, 12, 24 hours post dose. Each blood sample was collected into a tube that was kept on wet ice and contained potassium EDTA as the anticoagulant. Plasma was separated and stored at approximately −70° C. until analysis.
Plasma samples and dosing solutions were analyzed using a liquid chromatography/tandem mass spectrometry (LC/MS/MS) method to determine the concentrations of Compounds 7 and 10 with a lower limit of quantitation (LLOQ) of 1.00 ng/mL. The average plasma concentrations of Compounds 7 and 10 are plotted in FIG. 5 and are also presented in tabular form in Table 5.
Plasma concentration vs. time data were subjected to noncompartmental pharmacokinetic (PK) analysis. To determined the measured dose of each compound, the dose formulation (50 μL) was aliquoted into a cluster tube at the time of dosing. Then 450 μL of DMSO was added to the tube to dilute it 10×. Then the diluted dosing solution was spiked into rat blank plasma with 100× dilution. The resulting plasma sample was analyzed along with the plasma samples collected from rats that were dosed with the compounds, using the same LC/MS/MS method.

[3] = In vitro microsomal metabolic stability assay, monkey; type: in vitro ADME; settings: monkey liver microsomes 0.25 mg/mL, 1.0 μM compound, NADPH
Experimental: as §1, §2

[4] = target: T1, human NaV 1.8 (Homo sapiens, UniProt Q9Y5Y9); assay: E-VIPR assay for NaV inhibition; type: cell-based; settings: HEK cells expressing human NaV 1.8, E-VIPR, normalised to positive control 25 μM
T1 construct: expressed in transfected cells; host or cells: HEK cells, grown under blasticidin selection; KIR2.1 BacMam virus added before seeding
Text: Sodium ion channels are voltage-dependent proteins that can be activated by inducing membrane voltage changes by applying electric fields. […] The instrument comprises a microtiter plate handler, an optical system for exciting the coumarin dye while simultaneously recording the coumarin and oxonol emissions, a waveform generator, a current- or voltage-controlled amplifier, and parallel electrode pairs that are inserted into assay plate wells. Under integrated computer control, this instrument passes user-programmed electrical stimulus protocols to cells within the wells of the microtiter plate.
The solution was made by adding 10% Pluronic F127 stock equal to combined volumes of CC2-DMPE and DiSBAC6(3).
Then 25 μL per well from compound plate was transferred to each cell plate.
A pre-stimulus recording was performed for 0.5 seconds to obtain the un-stimulated intensities baseline. The stimulatory waveform was followed by 0.5 seconds of post-stimulation recording to examine the relaxation to the resting state.

[5] = In vitro microsomal metabolic stability assay, rat; type: in vitro ADME; settings: rat liver microsomes 0.25 mg/mL, 1.0 μM compound, NADPH
Experimental: as §1, §2

[6] = male, Sprague Dawley, plasma, rat IV bolus, cassette, nominal 0.5 mg/kg, noncompartmental analysis

T1 sequence (Q9Y5Y9 whole entry): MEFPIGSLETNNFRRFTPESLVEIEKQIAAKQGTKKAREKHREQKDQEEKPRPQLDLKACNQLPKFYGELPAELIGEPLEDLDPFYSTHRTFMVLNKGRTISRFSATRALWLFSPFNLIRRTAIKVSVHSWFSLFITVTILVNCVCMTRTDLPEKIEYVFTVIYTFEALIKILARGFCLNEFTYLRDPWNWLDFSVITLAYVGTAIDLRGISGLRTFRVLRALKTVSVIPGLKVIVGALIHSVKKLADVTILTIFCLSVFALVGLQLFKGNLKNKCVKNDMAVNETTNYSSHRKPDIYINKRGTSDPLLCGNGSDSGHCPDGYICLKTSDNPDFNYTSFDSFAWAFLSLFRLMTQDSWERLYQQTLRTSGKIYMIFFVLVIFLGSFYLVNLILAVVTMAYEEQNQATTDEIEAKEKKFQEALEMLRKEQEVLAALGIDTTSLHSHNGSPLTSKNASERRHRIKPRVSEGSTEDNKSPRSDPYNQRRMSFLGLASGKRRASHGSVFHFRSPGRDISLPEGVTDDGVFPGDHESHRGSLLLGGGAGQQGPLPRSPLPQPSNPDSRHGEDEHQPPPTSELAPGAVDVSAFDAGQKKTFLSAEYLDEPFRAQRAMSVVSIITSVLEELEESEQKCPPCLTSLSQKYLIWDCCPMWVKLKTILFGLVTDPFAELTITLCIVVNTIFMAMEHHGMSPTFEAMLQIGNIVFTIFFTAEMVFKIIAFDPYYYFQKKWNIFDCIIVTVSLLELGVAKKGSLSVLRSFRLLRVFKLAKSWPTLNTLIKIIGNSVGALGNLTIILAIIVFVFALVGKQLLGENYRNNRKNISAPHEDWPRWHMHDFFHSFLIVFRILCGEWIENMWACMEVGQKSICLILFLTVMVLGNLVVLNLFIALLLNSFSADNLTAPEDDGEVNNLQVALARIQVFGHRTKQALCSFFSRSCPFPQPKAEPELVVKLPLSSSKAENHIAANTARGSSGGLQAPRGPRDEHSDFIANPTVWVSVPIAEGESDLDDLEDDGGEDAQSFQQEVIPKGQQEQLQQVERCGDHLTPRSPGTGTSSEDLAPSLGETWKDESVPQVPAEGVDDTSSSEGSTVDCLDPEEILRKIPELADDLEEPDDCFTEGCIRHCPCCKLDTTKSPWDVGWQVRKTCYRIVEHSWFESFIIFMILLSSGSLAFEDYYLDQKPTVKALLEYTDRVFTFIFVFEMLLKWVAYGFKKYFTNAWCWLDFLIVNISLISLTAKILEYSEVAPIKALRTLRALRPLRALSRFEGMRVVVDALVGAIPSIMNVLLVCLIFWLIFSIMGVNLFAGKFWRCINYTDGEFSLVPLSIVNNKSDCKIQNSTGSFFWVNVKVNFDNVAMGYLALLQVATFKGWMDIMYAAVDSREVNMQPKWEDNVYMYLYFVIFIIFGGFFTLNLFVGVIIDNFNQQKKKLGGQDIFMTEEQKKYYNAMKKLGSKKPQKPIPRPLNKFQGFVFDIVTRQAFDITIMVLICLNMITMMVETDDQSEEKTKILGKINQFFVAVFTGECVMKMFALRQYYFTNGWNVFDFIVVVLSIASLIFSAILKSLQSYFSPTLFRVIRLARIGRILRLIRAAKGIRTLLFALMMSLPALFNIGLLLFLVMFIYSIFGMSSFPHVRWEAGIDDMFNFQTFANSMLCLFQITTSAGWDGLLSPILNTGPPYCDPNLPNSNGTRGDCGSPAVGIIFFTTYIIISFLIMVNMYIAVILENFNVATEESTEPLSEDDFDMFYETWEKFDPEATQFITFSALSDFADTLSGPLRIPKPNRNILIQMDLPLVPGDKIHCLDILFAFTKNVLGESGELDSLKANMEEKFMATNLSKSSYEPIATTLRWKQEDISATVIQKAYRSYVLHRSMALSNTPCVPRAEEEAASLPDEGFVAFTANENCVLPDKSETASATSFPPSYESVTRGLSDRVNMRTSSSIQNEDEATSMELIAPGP

In the case of `[2H]C([2H])([2H])c1cc(F)ccc1Oc1cc(C(F)(F)F)ccc1C(=O)Nc1cc[nH]c(=O)c1` [Compound 7, 2-(4-fluoro-2-(methyl-d3)phenoxy)-N-(2-oxo-1,2-dihydropyridin-4-yl)-4-(trifluoromethyl)benzamide], the “% remaining” value ([1]; 0 min) is reported as 100%, the “% remaining” value ([1]; 15 min) is reported as 86.1% and the “% remaining” value ([1]; 30 min) is reported as 85.8%. The “% remaining” value ([1]; 60 min) was 87.5%, the “clearance compared with Compound 10” value ([2]; in rats, IV) was “lower” and the “t1/2 compared with Compound 10” value ([2]; in rats, IV) was “longer”. It also gave a concentration at 0.083 h ([2]; male, Sprague Dawley, plasma, rat IV bolus, cassette, nominal 0.5 mg/kg, 0.083 hours) of 420 ng/mL, a concentration at 0.167 h ([2]; male, Sprague Dawley, plasma, rat IV bolus, cassette, nominal 0.5 mg/kg, 0.167 hours) of 399 ng/mL and a concentration at 0.25 h ([2]; male, Sprague Dawley, plasma, rat IV bolus, cassette, nominal 0.5 mg/kg, 0.25 hours) of 371 ng/mL. For the same compound, the concentration at 0.5 h ([2]; male, Sprague Dawley, plasma, rat IV bolus, cassette, nominal 0.5 mg/kg, 0.5 hours) was 301 ng/mL, the concentration at 1 h ([2]; male, Sprague Dawley, plasma, rat IV bolus, cassette, nominal 0.5 mg/kg, 1 hour) was 256 ng/mL and the concentration at 2 h ([2]; male, Sprague Dawley, plasma, rat IV bolus, cassette, nominal 0.5 mg/kg, 2 hours) was 208 ng/mL. For the same compound, the concentration at 4 h ([2]; male, Sprague Dawley, plasma, rat IV bolus, cassette, nominal 0.5 mg/kg, 4 hours) was 154 ng/mL, the concentration at 8 h ([2]; male, Sprague Dawley, plasma, rat IV bolus, cassette, nominal 0.5 mg/kg, 8 hours) was 91.3 ng/mL and the concentration at 12 h ([2]; male, Sprague Dawley, plasma, rat IV bolus, cassette, nominal 0.5 mg/kg, 12 hours) was 47.6 ng/mL. It also gave a concentration at 24 h ([2]; male, Sprague Dawley, plasma, rat IV bolus, cassette, nominal 0.5 mg/kg, 24 hours) of 7.57 ng/mL, an AUC [2, 6] of 937 ng·h/mL and an AUC(0-inf) [2, 6] of 961 ng·h/mL. It also gave a C0 [2, 6] of 211 ng/mL, a clearance [2, 6] of 8.07 mL/min/kg and a half-life [2, 6] of 4.4 h. For the same compound, the Vd ([2]; male, Sprague Dawley, plasma, rat IV bolus, cassette, nominal 0.5 mg/kg, noncompartmental analysis, read-out: Vss) was 3 L/kg, the “% remaining” value ([3]; 0 min) was 100% and the “% remaining” value ([3]; 15 min) was 97.0%. The “% remaining” value ([3]; 30 min) was 93.3%, the “% remaining” value ([3]; 60 min) was 92.5% and the “Nav1.8 Max % Activity” value [4] was 98%. The “% remaining” value ([5]; 0 min) was 100%, the “% remaining” value ([5]; 15 min) was 109% and the “% remaining” value ([5]; 30 min) was 105%. For the same compound, the “% remaining” value ([5]; 60 min) was 92.2%.
